Results on 1 compound are retold here after patent US20040115236A1, “Devices and methods for management of inflammation” (priority 2000, published 2004).

Series [1] concerns exercise-induced bronchoconstriction. Conditions: inhaled administration, plasma concentrations of 4-6 ng/ml; cited from earlier work.
A short description of series [2]: solubility in sterile distilled water. Conditions: thermodynamic from solid, read-out: maximum solubility. The format is physicochemical. An excerpt:
Sodium cromoglycate may be delivered from an implanted pump without the use of a catheter. For example, a DUROS® osmotic pump could be used. […] The formulation of sodium cromoglycate may then be loaded into a DUROS® pump under aseptic conditions. The pump is implanted in a subject, for instance subcutaneously in the upper arm, under local anesthetic and the drug would be released therefrom into the body of the subject. [formula]

The conditions of series [3]: cited from earlier work.

In the case of `O=C(O)c1cc(=O)c2c(OCC(O)COc3cccc4oc(C(=O)O)cc(=O)c34)cccc2o1` [sodium cromoglycate, Sodium cromoglycate], the “inhibition of exercise-induced bronchoconstriction” value in series [1] is 66%. Also, in series [2], the solubility was roughly 120 mg/mL. The “bioavailability, inhaled” value in series [3] (inhaled) is reported as 7.5%. Also, the oral bioavailability entry in series [3] (oral) was “less than 1%”.
